Experimental data taken from article PMC6079455, “Discovery of Novel Caeridins from the Skin Secretion of the Australian White's Tree Frog, Litoria caerulea” (International Journal of Genomics, 2018).
Ends that are not written are not given here.

How the values were obtained:
MRSA NCTC12493 = experiment: Antimicrobial test (broth microdilution); assay type: cell-based, methicillin-resistant S. aureus; conditions: for MIC: MHB, 5 × 10^5 CFU/ml, 37°C overnight, 550 nm
Protocol: (§1) The antimicrobial activities were tested by the broth microdilution method and evaluated by the determination of MIC values against different tested microorganisms, the Gram-positive bacteria, S. aureus (NCTC 10788), E. faecalis (NCTC12697), and MRSA (NCTC 12493); the Gram-negative bacterium, E. coli (NCTC 10418); and the yeast, C. albicans (NCYC 1467). The microorganisms were cultured to their log phase in MHB and diluted to 5 × 10^5 CFU/ml then subsequently treated with peptide solutions of gradient concentrations. After incubation at 37°C overnight, the growth of microorganisms was detected at a wavelength of 550 nm using a Synergy HT plate reader (Biolise BioTek ELx808, Winooski, VT, USA). The MICs were determined as the lowest concentration of peptide where […].

E. faecalis NCTC12697 = experiment: Antimicrobial test (broth microdilution); assay type: cell-based, Enterococcus faecalis; conditions: for MIC: MHB, 5 × 10^5 CFU/ml, 37°C overnight, 550 nm
Protocol: as §1

C. albicans NCYC1467 = experiment: Antimicrobial test (broth microdilution); assay type: cell-based, Candida albicans; conditions: for MIC: MHB, 5 × 10^5 CFU/ml, 37°C overnight, 550 nm
Protocol: as §1

S. aureus = experiment: Membrane permeability on S. aureus (SYTOX Green); assay type: cell-based, Staphylococcus aureus; conditions: 2 h; for membrane-permeabilising activity on S. aureus: up to 512 μM
Protocol: The cell membrane permeability of S. aureus was tested with SYTOX Green Nucleic Acid Stain (Life Technologies, Carlsbad, CA, USA). The log-phase S. aureus was pelleted and suspended in 5% TSB in 0.85% NaCl solution to achieve 1 × 10^8 CFU/ml cells which was then treated with peptide solutions at 37°C for 2 h. The maximum membrane-compromised S. aureus was produced by 70% isopropanol treatment. Subsequently, cells were mixed with 5 μM SYTOX Green stain and incubated in the dark for 10 min. The fluorescence was measured in a 37°C Synergy HT plate reader (Biolise BioTek ELx808, Winooski, VT, USA) at excitation and emission wavelengths of 480 nm and 528 nm, respectively. The membrane permeability was calculated as (1) Membrane permeability%=F−F0/F1−F0×100%, where F represents the processed fluorescence intensity with peptide treatments, F0 represents the processed fluorescence intensity of untreated S. aureus, and F1 represents the processed fluorescence intensity in the maximum membrane-compromised S. aureus (70% isopropanol-treated). The fluorescence intensities of background were subtracted prior to calculation.

E. coli = experiment: Membrane permeability on E. coli (ONPG / β-galactosidase); assay type: cell-based, Escherichia coli; conditions: ONPG hydrolysis, absorbance 420 nm, 0-30 min, 37°C
Protocol: The membrane permeabilsation of E.coli was determined by measuring the release of β-galactosidase activity from E. coli into the culture medium with ONPG as the substrate. The log-phase E. coli was grown in MHB medium containing 2% lactose at 37°C, and the cells were pelleted. The cell pellets were suspended in 10 mM PBS (pH 7.4) containing 1.5 mM ONPG and diluted to 1 × 10^8 CFU/ml. Aliquots of cells were incubated with different concentrations of peptides at 37°C. Permeabilisation was measured at 420 nm every 2 min from 0 to 30 min, which reflects ONPG influx into the cells working as an indicator of the permeability of the tested peptides.

[1] = system: human microvascular endothelial cell line HMEC-1; experiment: Membrane permeabilisation of HMEC-1 (LDH release); assay type: cell-based; conditions: 24 h; for cytotoxicity to HMEC-1 cells: 100 μM, LDH release; for membrane lysis (LDH release) of HMEC-1: 10^−7 M to 10^−4 M
Protocol: The membrane permeabilisation of the human microvascular endothelial cell line, HMEC-1, was evaluated using the Pierce LDH Cytotoxicity Assay Kit (Thermo Fisher Scientific, San Francisco, CA, USA). HMEC-1 cells were cultured in MCDB-131 medium (Life Technology, Paisley, UK) with 10% FBS, 10 ng/ml epidermal growth factor (EGF) (Life Technology, Paisley, UK), 10 mM L-glutamine (Life Technology, Paisley, UK), and 1% penicillin-streptomycin (Sigma-Aldrich, St. Louise, MO, USA), at 37°C under 5% CO2. Cells were seeded in a 96-well plate at 5000 cells per well and cultured overnight to 80% confluency. Then, the cells were treated with different peptide solutions of gradient concentrations from 10^−7 M to 10^−4 M for 24 h at 37°C, 5% CO2, and H2O-treated cells were made as the spontaneous LDH release control. Lysis buffer was added to cells and incubated for 45 min at 37°C, 5% CO2, to produce the lysis buffer-treated cells which were referred to as maximum LDH release control. Then 50 μl of each sample supernatant was transferred to a 96-well flat-bottom plate in triplicate wells, to which 50 μl of reaction mixture was added, incubated, and protected from light at room temperature for 30 min. After addition of 50 μl Stop Solution to each sample well and removal of bubbles present in sample wells, the absorbance at 490 nm and 680 nm was measured. The absorbance values at 680 nm were subtracted from the absorbance values at 490 nm before calculation of the level of LDH release (cytotoxicity). The level of LDH release was calculated as (2) LDH release %=L−L0/L1−L0×100%, where L refers to sample-treated LDH activity, L0 to spontaneous (H2O-treated) LDH activity, and L1 to maximum (lysis buffer-treated) LDH activity.
Data analysis was performed using one-way analysis of variance followed by Dunnett's multiple comparison tests with maximum LDH release control in GraphPad Prism (Version 6.0; GraphPad Software Inc., San Diego, CA, USA).

horse erythrocytes = experiment: Haemolytic test; assay type: cell-based; conditions: tested concentrations, horse red blood cells, 37°C, 2 h
Protocol: The haemolysis of Caeridins was tested on prepared defrinated horse red blood cells (TCS Biosciences Ltd., Buckingham, UK) by incubating equal volumes of peptide solutions with erythrocyte suspensions at 37°C for 2 H. Maximum haemolysis control was included by incubating equal volumes of 1% Triton X-100 (Sigma-Aldrich, St. Louis, MO, USA) with erythrocyte suspensions. Lysis of erythrocytes was detected by the measurement of supernatant absorbance at a wavelength of 550 nm using a Synergy HT plate reader (Biolise BioTek ELx808, Winooski, VT, USA). The level of haemolysis was as calculated as (3) Haemolysis %=A−A0/A1−A0×100%, where A represents the absorbance with peptide treatments, A0 represents the average absorbance in untreated erythrocytes, and A1 represents the average absorbance in the maximum haemolysis control (1% Triton X-100-treated).

[2] = system: rat urinary bladder smooth muscle; experiment: Rat urinary bladder smooth muscle test; conditions: organ bath, 37°C, n = 5
Protocol: (§2) Female Wistar rats (250–300 g) were euthanized by CO2 asphyxiation followed by cervical dislocation under appropriate Home Office (UK) animal licenses. Full urinary bladder and ileum were carefully removed from the abdomen, then placed in cold Kreb's solution (118 mM NaCl, 4.7 mM KCl, 25 mM NaHCO3, 1.15 mM NaH2PO4, 2.5 mM CaCl2, 1.1 mM MgCl2, and 5.6 mM glucose), equilibrated with a carbogen mixture (95% O2, 5% CO2). The prepared smooth muscles linked with transducers were placed in 2 ml capacity organ baths with Kreb's solution flowing through at 2 ml/min and maintained at 37°C with constant bubbling of carbogen gas mixture (95% O2, […]) and equilibrated for 1 h prior to analysis. Then the viability of these smooth muscle preparations was tested by 60 mM KCl. Caeridins were tested at sequential molar concentrations in the range from 10^−6 M to 10^−11 M. Dose-response curves were depicted for each Caeridin on individual smooth muscle preparations (n = 5). Changes in tension of the smooth muscle preparations were detected by pressure transducers connected to a PowerLab System (ADInstruments Pty Ltd.). Data were recorded and calculated to obtain the means of responses and standard error of means (SEM). The dose-response curve of each Caeridin was established using best-fit algorithms through the data analysis package provided by GraphPad Prism (Version 6.0; GraphPad Software Inc., San Diego, CA, USA), and the comparative EC50 value for each peptide was depicted.

S. aureus NCTC10788 = experiment: Antimicrobial test (broth microdilution); assay type: cell-based, Staphylococcus aureus; conditions: for MIC: MHB, 5 × 10^5 CFU/ml, 37°C overnight, 550 nm
Protocol: as §1

E. coli NCTC10418 = experiment: Antimicrobial test (broth microdilution); assay type: cell-based, Escherichia coli; conditions: for MIC: MHB, 5 × 10^5 CFU/ml, 37°C overnight, 550 nm
Protocol: as §1

rat ileum smooth muscle = experiment: Rat ileum smooth muscle test; conditions: organ bath, 37°C, n = 5
Protocol: as §2

Molecule	MBC (MRSA NCTC12493) [µM]	MIC (MRSA NCTC12493) [µM]	MIC (E. faecalis NCTC12697) [µM]	MFC (C. albicans NCYC1467) [µM]	cytotoxicity to HMEC-1 cells [1]	haemolytic activity (horse erythrocytes)	MBC (S. aureus NCTC10788) [µM]	MIC (S. aureus NCTC10788) [µM]	MBC (E. faecalis NCTC12697) [µM]	MBC (E. coli NCTC10418) [µM]	MIC (E. coli NCTC10418) [µM]	MIC (C. albicans NCYC1467) [µM]	membrane-permeabilising activity on S. aureus (S. aureus)	membrane permeabilisation of E. coli at maximum tested concentration (E. coli)	membrane lysis (LDH release) of HMEC-1 ([1]; relative to lysis buffer)	also measured
CC[C@H](C)[C@H](NC(=O)CN)C(=O)NCC(=O)N[C@@H](C)C(=O)N[C@H](C(=O)N[C@@H](CC(C)C)C(=O)N[C@@H](CCCCN)C(=O)N[C@H](C(=O)N[C@@H](CC(C)C)C(=O)N[C@H](C(=O)N[C@H](C(=O)NCC(=O)N[C@@H](CC(C)C)C(=O)N1CCC[C@H]1C(=O)N[C@@H](C)C(=O)N[C@@H](CC(C)C)C(=O)N[C@H](C(=O)N[C@@H](CO)C(=O)N[C@@H](Cc1c[nH]c2ccccc12)C(=O)N[C@H](C(=O)N[C@@H](CCCCN)C(=O)N[C@@H](CCCNC(=N)N)C(=O)N[C@@H](CCCCN)C(=O)N[C@@H](CCCNC(=N)N)C(=O)N[C@@H](CCC(N)=O)C(=O)N[C@@H](CCC(N)=O)C(N)=O)[C@@H](C)CC)[C@@H](C)CC)[C@@H](C)O)[C@@H](C)O)C(C)C)C(C)C [Melittin, reference compound]	4	2	2	8	significant cytotoxicity	eminent haemolysis from 1 μM										membrane permeability of S. aureus at MBC (S. aureus; peptide at its MBC, 37°C, 1 × 10^8 CFU/ml, relative to 70% isopropanol): 100%; membrane permeability of S. aureus at MIC (S. aureus; peptide at its MIC, 37°C, 1 × 10^8 CFU/ml, relative to 70% isopropanol): approximately 50%; membrane permeabilisation of E. coli at MIC and MBC (E. coli; 1 × 10^8 CFU/ml, PBS pH 7.4): higher absorbance at 420 nm; LDH release from HMEC-1 ([1]; 0.1 μM, relative to lysis buffer): approximately 10%
GLLDGLLGTLGL-NH2 [Caeridin-1]	> 512	> 512	> 512	> 512	weak cytotoxicity	weak haemolytic activities	> 512	> 512	> 512	> 512	> 512	> 512	barely showed membrane-permeabilising activity	failed to induce membrane permeabilisation	lower than 5%	maximum contraction effect on bladder smooth muscle preparations [2]: 0.3 g; EC50 ([2]; Kreb's solution, 10^−11 to 10^−6 M, read-out: EC50 inducing rat bladder smooth muscle contractions): 5.6 nM
N2H-GLLDSLLGGLGL-CONH2 [S5-Caeridin-1, novel Caeridin peptide from Litoria caerulea skin secretion, synthetic replicate, C-terminally amidated]	> 512	> 512	> 512	> 512	weak cytotoxicity	weak haemolytic activities	> 512	> 512	> 512	> 512	> 512	> 512	barely showed membrane-permeabilising activity	failed to induce membrane permeabilisation	lower than 5%	maximum relaxant effect on ileum smooth muscle preparations (rat ileum smooth muscle): 0.2 g; EC50 (rat ileum smooth muscle; Kreb's solution, 10^−11 to 10^−6 M, read-out: EC50 causing rat ileum smooth muscle relaxations): 9.5 nM
RPPGFSPFR [Bradykinin, reference compound] [listing 1 of 2 here]	> 512	> 512	> 512	> 512			> 512	> 512	> 512	> 512	> 512	> 512	barely showed membrane-permeabilising activity	failed to induce membrane permeabilisation		
RPPGFSPFR [Bradykinin, reference compound] [listing 2 of 2 here]					weak cytotoxicity	weak haemolytic activities									lower than 5%	
